Experimental data published in patent US8609653B2, “Azaindole compounds and methods for treating HIV” (priority 2011, dated 2013).
Where a name gives a salt, the structure may show the parent alone.

What follows are molecules tested on HIV (assay: MT4 assay: antiviral HIV activity in MT-4 cells). Settings: Human immunodeficiency virus 1, MT4, 96 h, read-out: HIV MT4 Assay IC50 (μM), HTLV-1 transformed cell line MT-4; read-out 96 hours later with cell titer glo; 10 point dose response.
Assay type: cell-based
Protocol: Antiviral HIV activity and cytotoxicity values for compounds of the invention from Table 1 were measured in parallel in the HTLV-1 transformed cell line MT-4 based on the method previously described (Hazen et al., 2007, In vitro antiviral activity of the novel, tyrosyl-based human immunodeficiency virus (HIV) type 1 protease inhibitor brecanavir (GW640385) in combination with other antiretrovirals and against a panel of protease inhibitor-resistant HIV (Hazen et al., “In vitro antiviral activity of the novel, tyrosyl-based human immunodeficiency virus (HIV) type 1 protease inhibitor brecanavir (GW640385) in combination with other antiretrovirals and against a panel of protease inhibitor-resistant HIV”, Antimicrob. Agents Chemother. 2007, 51: 3147-3154; and Pauwels et al., “Sensitive and rapid assay on MT-4 cells for the detection of antiviral compounds against the AIDS virus”, J. of Virological Methods 1987, 16: 171-185).
Luciferase activity was measured 96 hours later by adding a cell titer glo (Promega, Madison, Wis.). Percent inhibition of cell protection data was plotted relative to no compound control. Under the same condition, cytotoxicity of the compounds was determined using cell titer Glo™ (Promega, Madison, Wis.). IC50s were determined from a 10 point dose response curve using 3-4-fold serial dilution for each compound, which spans a concentration range>1000 fold.
These values are plotted against the molar compound concentrations using the standard four parameter logistic equation: y=((Vmax*x^n)/(K^n+x^n))+Y2
Y2=minimum y n=slope factor
Vmax=maximum y x=compound concentration [M]
For `Cc1ccc(-c2c(C(OC(C)(C)C)C(=O)O)c(C)nc3c2ccn3Cc2ccc(F)cc2)cc1` (centres unmarked) [Example 1, 2-(tert-butoxy)-2-(1-(4-fluorobenzyl)-6-methyl-4-(p-tolyl)-1H-pyrrolo[2,3-b]pyridin-5-yl)acetic acid], the IC50 was 0.18 µM. In the case of `Cc1ccc(-c2c([C@H](OC(C)(C)C)C(=O)O)c(C)nc3c2ccn3Cc2ccc(F)cc2)cc1` [Example 2, (S)-2-(tert-butoxy)-2-(1-(4-fluorobenzyl)-6-methyl-4-(p-tolyl)-1H-pyrrolo[2,3-b]pyridin-5-yl)acetic acid], the IC50 is reported as 0.08 µM. For `Cc1nc2c(ccn2Cc2ccc(F)c(F)c2)c(-c2ccc(Cl)cc2)c1[C@H](OC(C)(C)C)C(=O)O` [Example 3, (S)-2-(tert-butoxy)-2-(4-(4-chlorophenyl)-1-(3,4-difluorobenzyl)-6-methyl-1H-pyrrolo[2,3-b]pyridin-5-yl)acetic acid], the IC50 was 0.09 µM. With `Cc1ccc(-c2c(C(OC(C)(C)C)C(=O)O)c(C)nc3c2ccn3Cc2ccccn2)cc1` (centres unmarked) [Example 4, 2-(tert-Butoxy)-2-(6-methyl-1-(pyridin-2-ylmethyl)-4-(p-tolyl)-1H-pyrrolo[2,3-b]pyridin-5-yl)acetic acid, Trifluoroacetic acid salt] the IC50 was 1.05 µM. In the case of `Cc1ccc(-c2c(C(OC(C)(C)C)C(=O)O)c(C)nc3c2ccn3Cc2ccc(F)c(F)c2)cc1` (centres unmarked) [Example 5, 2-(tert-butoxy)-2-(1-(3,4-difluorobenzyl)-6-methyl-4-(p-tolyl)-1H-pyrrolo[2,3-b]pyridin-5-yl)acetic acid], the IC50 is reported as 0.2 µM. `Cc1ccc(-c2c(C(OC(C)(C)C)C(=O)O)c(C)nc3c2ccn3Cc2cc(F)ccc2F)cc1` (centres unmarked) [Example 6, 2-(tert-butoxy)-2-(1-(2,5-difluorobenzyl)-6-methyl-4-(p-tolyl)-1H-pyrrolo[2,3-b]pyridin-5-yl)acetic acid] was tested, and the IC50 was 0.182 µM. For `Cc1ccc(-c2c([C@H](OC(C)(C)C)C(=O)O)c(C)nc3c2ccn3Cc2cc(F)ccc2F)cc1` [Example 7, (S)-2-(tert-butoxy)-2-(1-(2,5-difluorobenzyl)-6-methyl-4-(p-tolyl)-1H-pyrrolo[2,3-b]pyridin-5-yl)acetic acid], the IC50 was 0.106 µM. `Cc1ccc(-c2c(C(OC(C)(C)C)C(=O)O)c(C)nc3c2ccn3Cc2cc(F)c(F)c(F)c2)cc1` (centres unmarked) [Example 8, 2-(tert-butoxy)-2-(6-methyl-4-(p-tolyl)-1-(3,4,5-trifluorobenzyl)-1H-pyrrolo[2,3-b]pyridin-5-yl)acetic acid] was tested, and the IC50 was 0.16 µM. With `Cc1ccc(-c2c([C@H](OC(C)(C)C)C(=O)O)c(C)nc3c2ccn3Cc2cc(F)c(F)c(F)c2)cc1` [Example 9, (S)-2-(tert-butoxy)-2-(6-methyl-4-(p-tolyl)-1-(3,4,5-trifluorobenzyl)-1H-pyrrolo[2,3-b]pyridin-5-yl)acetic acid] the IC50 was 0.04 µM. With `Cc1ccc(-c2c([C@@H](OC(C)(C)C)C(=O)O)c(C)nc3c2ccn3Cc2cc(F)c(F)c(F)c2)cc1` [Example 10, (R)-2-(tert-butoxy)-2-(6-methyl-4-(p-tolyl)-1-(3,4,5-trifluorobenzyl)-1H-pyrrolo[2,3-b]pyridin-5-yl)acetic acid] the IC50 was 10 µM. For `Cc1nc2c(ccn2Cc2ccc(F)c(F)c2)c(-c2ccc3c(c2)CCCO3)c1C(OC(C)(C)C)C(=O)O` (centres unmarked) [Example 11, 2-(tert-butoxy)-2-(4-(chroman-6-yl)-1-(3,4-difluorobenzyl)-6-methyl-1H-pyrrolo[2,3-b]pyridin-5-yl)acetic acid], the IC50 was 0.09 µM. `Cc1ccc(-c2c(C(OC(C)(C)C)C(=O)O)c(C)nc3c2ccn3Cc2ccc(C)c(F)c2)cc1` (centres unmarked) [Example 12, 2-(tert-butoxy)-2-(1-(3-fluoro-4-methylbenzyl)-6-methyl-4-(p-tolyl)-1H-pyrrolo[2,3-b]pyridin-5-yl)acetic acid] gave an IC50 of 2.1 µM. In the case of `Cc1ccc(-c2c(C(OC(C)(C)C)C(=O)O)c(C)nc3c2ccn3Cc2ccc(F)cc2Cl)cc1` (centres unmarked) [Example 13, 2-(tert-butoxy)-2-(1-(2-chloro-4-fluorobenzyl)-6-methyl-4-(p-tolyl)-1H-pyrrolo[2,3-b]pyridin-5-yl)acetic acid], the IC50 is reported as 0.43 µM. `Cc1ccc(-c2c([C@@H](OC(C)(C)C)C(=O)O)c(C)nc3c2ccn3[C@H](C)c2ccc(F)cc2)cc1` [Example 14, (R)-2-(tert-butoxy)-2-(1-((R)-1-(4-fluorophenyl)ethyl)-6-methyl-4-(p-tolyl)-1H-pyrrolo[2,3-b]pyridin-5-yl)acetic acid] gave an IC50 of 0.71 µM. Molecule `Cc1ccc(-c2c([C@H](OC(C)(C)C)C(=O)O)c(C)nc3c2ccn3[C@H](C)c2ccc(F)cc2)cc1` [Example 15, (S)-2-(tert-butoxy)-2-(1-((R)-1-(4-fluorophenyl)ethyl)-6-methyl-4-(p-tolyl)-1H-pyrrolo[2,3-b]pyridin-5-yl)acetic acid] has an IC50 of 0.1 µM. For `Cc1ccc(-c2c(C(OC(C)(C)C)C(=O)O)c(C)nc3c2ccn3Cc2ccc(Cl)c(F)c2)cc1` (centres unmarked) [Example 16, 2-(tert-butoxy)-2-(1-(4-chloro-3-fluorobenzyl)-6-methyl-4-(p-tolyl)-1H-pyrrolo[2,3-b]pyridin-5-yl)acetic acid], the IC50 was 0.36 µM. Work on `Cc1ccc(-c2c([C@@H](OC(C)(C)C)C(=O)O)c(C)nc3c2ccn3Cc2ccc(F)c(F)c2)cc1` [Example 17, (R)-2-(tert-butoxy)-2-(1-(3,4-difluorobenzyl)-6-methyl-4-(p-tolyl)-1H-pyrrolo[2,3-b]pyridin-5-yl)acetic acid] yielded an IC50 of 10 µM. `Cc1ccc(-c2c([C@H](OC(C)(C)C)C(=O)O)c(C)nc3c2ccn3Cc2ccc(F)c(F)c2)cc1` [Example 18, (S)-2-(tert-butoxy)-2-(1-(3,4-difluorobenzyl)-6-methyl-4-(p-tolyl)-1H-pyrrolo[2,3-b]pyridin-5-yl)acetic acid] showed an IC50 of 0.1 µM. In the case of `Cc1ccc(-c2c(C(OC(C)(C)C)C(=O)O)c(C)nc3c2ccn3Cc2ccccc2)cc1` (centres unmarked) [Example 19, 2-(1-benzyl-6-methyl-4-(p-tolyl)-1H-pyrrolo[2,3-b]pyridin-5-yl)-2-(tert-butoxy)acetic acid], the IC50 is reported as 0.17 µM. Work on `Cc1ccc(-c2c(C(OC(C)(C)C)C(=O)O)c(C)nc3c2ccn3Cc2cc(Cl)ccc2F)cc1` (centres unmarked) [Example 20, 2-(tert-butoxy)-2-(1-(5-chloro-2-fluorobenzyl)-6-methyl-4-(p-tolyl)-1H-pyrrolo[2,3-b]pyridin-5-yl)acetic acid] yielded an IC50 of 0.23 µM. With `Cc1ccc(-c2c(C(OC(C)(C)C)C(=O)O)c(C)nc3c2ccn3Cc2cccc(F)c2F)cc1` (centres unmarked) [Example 21, 2-(tert-butoxy)-2-(1-(2,3-difluorobenzyl)-6-methyl-4-(p-tolyl)-1H-pyrrolo[2,3-b]pyridin-5-yl)acetic acid] the IC50 was 0.1 µM. `Cc1ccc(-c2c(C(OC(C)(C)C)C(=O)O)c(C)nc3c2ccn3Cc2cccc(Cl)c2F)cc1` (centres unmarked) [Example 22, 2-(tert-butoxy)-2-(1-(3-chloro-2-fluorobenzyl)-6-methyl-4-(p-tolyl)-1H-pyrrolo[2,3-b]pyridin-5-yl)acetic acid] gave an IC50 of 0.86 µM. `Cc1ccc(-c2c(C(OC(C)(C)C)C(=O)O)c(C)nc3c2ccn3Cc2ccc(Cl)cc2F)cc1` (centres unmarked) [Example 23, 2-(tert-butoxy)-2-(1-(4-chloro-2-fluorobenzyl)-6-methyl-4-(p-tolyl)-1H-pyrrolo[2,3-b]pyridin-5-yl)acetic acid] showed an IC50 of 0.27 µM. With `Cc1ccc(-c2c(C(OC(C)(C)C)C(=O)O)c(C)nc3c2ccn3Cc2ccc(F)cc2F)cc1` (centres unmarked) [Example 24, 2-(tert-butoxy)-2-(1-(2,4-difluorobenzyl)-6-methyl-4-(p-tolyl)-1H-pyrrolo[2,3-b]pyridin-5-yl)acetic acid] the IC50 was 0.125 µM. `Cc1ccc(-c2c(C(OC(C)(C)C)C(=O)O)c(C)nc3c2ccn3Cc2ccc(F)c(C)c2)cc1` (centres unmarked) [Example 25, 2-(tert-butoxy)-2-(1-(4-fluoro-3-methylbenzyl)-6-methyl-4-(p-tolyl)-1H-pyrrolo[2,3-b]pyridin-5-yl)acetic acid] showed an IC50 of 0.14 µM. `Cc1ccc(-c2c(C(OC(C)(C)C)C(=O)O)c(C)nc3c2ccn3Cc2c(F)cc(F)cc2F)cc1` (centres unmarked) [Example 26, 2-(tert-butoxy)-2-(6-methyl-4-(p-tolyl)-1-(2,4,6-trifluorobenzyl)-1H-pyrrolo[2,3-b]pyridin-5-yl)acetic acid] was tested, and the IC50 was 0.12 µM. `Cc1nc2c(ccn2Cc2ccc(F)cc2)c(-c2ccc3c(c2)CCCO3)c1C(OC(C)(C)C)C(=O)O` (centres unmarked) [Example 27, 2-(tert-butoxy)-2-(4-(chroman-6-yl)-1-(4-fluorobenzyl)-6-methyl-1H-pyrrolo[2,3-b]pyridin-5-yl)acetic acid] showed an IC50 of 0.08 µM. `Cc1nc2c(ccn2Cc2ccc(F)c(F)c2)c(-c2ccc3c(c2)CCCO3)c1[C@@H](OC(C)(C)C)C(=O)O` [Example 28, (R)-2-(tert-butoxy)-2-(4-(chroman-6-yl)-1-(3,4-difluorobenzyl)-6-methyl-1H-pyrrolo[2,3-b]pyridin-5-yl)acetic acid] gave an IC50 of 6.56 µM.

Same assay, conditions: read-out: HIV MT4 Assay IC50; HTLV-1 transformed cell line MT-4; read-out 96 hours later with cell titer glo; 10 point dose response; Trifluoroacetic acid salt
`Cc1nc2c(c3c(n2C)CCCC3)c(-c2ccc3c(c2C)NCCO3)c1[C@H](OC(C)(C)C)C(=O)O` (atropisomer, axis not shown; (P)) [Example 129, (2S)(P)-2-(tert-butoxy)-2-(2,9-dimethyl-4-(5-methyl-3,4-dihydro-2H-benzo[b][1,4]oxazin-6-yl)-6,7,8,9-tetrahydro-5H-pyrido[2,3-b]indol-3-yl)acetic acid, Trifluoroacetic acid salt] was tested, and the IC50 was 1 µM.
